According to PMC5745756, “N,N-disubstituted azines attenuate LPS-mediated neuroinflammation in microglia and neuronal apoptosis via inhibiting MAPK signaling pathways” (BMC Neuroscience, 2017):

Assays:
Type in all cases: cell-based, murine
[1] = tested on: NO production in LPS-activated BV-2 cells; assay: Nitrite (Griess) assay of NO production in LPS-activated BV-2 cells
Description: (§1) […] or MTT assay was performed as described by our previous publication with slight modification. In order to measure MTT and NO production, BV-2 cells were plated into a 96-well plate at a density of 4 × 10^4 cells/well. […] Then, nitrite (a soluble oxidation product of NO) was detected in the culture media by using the Griess reaction. The supernatant (50 µL) was collected and mixed with an equal volume of Griess reagent (1% sulfanilamide in phosphoric acid and 0.1% N-1-napthylethylenediamine dihydrochloride). The absorbance was measured at 570 nm by using a microplate reader. Sodium nitrite was used to create a standard curve from which the NO2 concentration was calculated. The cell viability was evaluated by spectrophotometrically measuring the reduction of yellow 3-[4,5-dimethylthiazol-2-yl]-2,5-diphenyltetrazolium bromide (MTT) to purple formazan crystals. MTT was dissolved in DMEM, added to the culture plate containing cells at a final concentration of 0.5 mg/mL, and incubated for 1 h. The medium containing the MTT solution was carefully removed, and 200 µL DMSO was added to each well. After solubilizing the stained cells to produce a formazan-colored solution, the optical density (OD) was measured on a microplate reader at 570 nm, and the results were expressed as a percentage of the LPS-treated group. The same plate was used for the NO and MTT assays. The cell supernatant was used for the NO assay, and the plated cells were used for the MTT assay.
(§2) The NO production and cell viability of LPS-activated BV-2 cells were measured after treatment with azine derivatives using Griess reagent and MTT assay, respectively.

[2] = tested on: extracellular signal-regulated kinase (ERK); assay: Western blot of LPS-induced ERK phosphorylation in BV-2 cells; details: 5–20 µM; LPS 30 min, similar pattern at 24 h
Description: BV-2 cells were seeded in a 6-well plate at a density of 6 × 10^5 cells/well and exposed to LPS (100 ng/mL) in the presence or absence of compound 3 for required time. After treatment, cells were collected and lysed in cell lysis buffer (50 mM Tris–HCl, pH 8.0, 0.1% SDS, 150 mM NaCl, 1% NP-40, 0.02% sodium azide, 0.5% sodium deoxycholate, 100 µg/mL PMSF, and […]) for 24 h at 4 °C. The protein content was measured using a Bradford assay. Equal amounts of protein (30 µg) were separated using SDS-PAGE and transferred to a nitrocellulose membrane. The membrane was blocked for 1 h with 5% skim milk in tris-buffered saline with Tween-20 (TBST) and then incubated for 12 h with primary antibodies against α-tubulin (Sigma-Aldrich Cat. no: T5168), iNOS (Bioscience Cat. no: 610333, COX-2 (Santa Cruz Cat. no: sc-1745), ERK (Cell Signaling Cat. no: 9107s), pERK (Cell Signaling Cat. no: 5013s), JNK (Cell Signaling Cat. no: 9252s), pJNK (Cell Signaling Cat. no: 4671s), p38 (Cell Signaling Cat. no: 8690s), and pP38 (Cell Signaling Cat. no: 9211s), followed by incubation for 1 h with horseradish peroxidase-conjugated secondary antibodies (Cell Signaling) at 15 °C. […]
Fig. 3 Effect of compound 3 on MAPK pathway in LPS-induced BV-2 cells. […] The phosphorylation of p38, JNK, and ERK was measured by western blotting (a–c). […]

[3] = tested on: BV-2 cells; assay: MTT cell viability of LPS-activated BV-2 cells; details: at 20 µM
Description: as §1, §2

[4] = MTT cell viability of LPS-activated BV-2 cells; details: mouse, LPS-activated BV-2 microglial cells; 20 µM compound; percentage of the LPS-only treatment group; mean ± standard deviation, three experiments
Description: as §1, §2

[5] = tested on: TNF-α; assay: ELISA of TNF-α in LPS-activated BV-2 culture medium; details: 10 and 20 µM, LPS 24 h
Description: To measure TNF-α, IL-6, and PGE2, BV-2 cells were seeded in a 24-well plate at a density of 3 × 10^5 cells/well. The cells were treated with LPS (100 ng/mL) in the presence or absence of compound 3 for 24 h, and the media was collected and centrifuged. IL-6, TNF-α, and PGE2 produced in microglial culture supernatants […] were measured by competitive enzyme immunoassay kits (R&D systems, Minneapolis, MN, USA) in accordance with the manufacturer’s protocol.
Fig. 2 Effect of compound 3 on LPS-induced iNOS and COX2 expression in BV-2 cells. BV-2 cells were pretreated with various concentrations (5, 10, and 20 µM) of compound 3 for 30 min and activated with 100 ng/mL LPS. After 6 h, the cells were collected for analysis of iNOS and COX-2 expression using western blot analysis (a–c). Similarly, LPS activation was made for 24 h as chronic BV2 activation and the iNOS and COX-2 expression was measured (d). α-Tubulin was used as the loading control. The densitometric analysis of bands was performed as described in the methods section. After 24 h, the culture medium was subsequently collected to measure the quantity of PGE2 (e), IL-6 (f), and TNF-α (g) using ELISA analysis. […]

Structure (SMILES): COc1cc(/C=C/C=N/N=C/C=C/c2ccc(O)c(OC)c2)ccc1O [Compound 3, 4,4′-(1E,1′E,3E,3′E)-3,3′-(hydrazine-1,2-diylidene)bis(prop-1-ene-1-yl-3-ylidene)bis(2-methoxyphenol)]
- LPS-induced NO production ([1]; LPS-activated BV-2 cells): strongly inhibited
- IC50 ([1]; Mus musculus, BV-2, 100 ng/mL LPS, 24 h, Griess reaction, read-out: IC50, concentration that caused 50% inhibition of NO production in LPS-activated BV-2 cells): 12.5 µM
- Phosphorylation of ERK [2]: did not alter
- Cytotoxicity to BV-2 cells [3]: without cytotoxicity
- viability at 24 h, 20 µM [4]: 101 ± 2.53%
- TNF-α secretion [5]: significant reduction
